From US4879114A, “Lipids from omentum and methods for cosmetic use” (Angio-Medical Corporation, priority 1985, dated 1989) come the findings set out here.

The subject of this series is skin (back) of subjects. To be noted: in vivo.

For the substance petrolatum, the “challenge patch reading: dermal contact irritation or sensitization” value is listed as “negative at each reading without any evidence of dermal contact irritation or sensitization” and the “induction phase patch reading” value is listed as “negative at each reading”.
